{
  "source": "patent US20230210846A1",
  "about": "“TREATMENT FOR AMYLOIDOSIS” (Zeno Management,Inc., priority 2020, published 2023)",
  "key": {"[1]": {"system": "KMS-12-BM cells", "experiment": "Tumor growth study in KMS-12-BM mouse model", "format": "in vivo", "conditions": "for tumor growth inhibition (TGI): KMS-12-BM model", "experimental": "Tumor volumes were evaluated twice per week to calculate tumor volume over time, and mice were weighed twice per week as a surrogate for signs of toxicity. […] Td and Cd are the mean tumor volumes of the treated and control animals, and T0 and C0 are the mean tumor volumes of the treated and control animals at the start of the experiment.\n(§1) Tumor volumes were evaluated twice per week to calculate tumor volume over time, and mice were weighed twice per week as a surrogate for signs of toxicity. Tumor growth inhibition (TGI) was calculated using the following equation TGI=(1−(Td−T0)/(Cd−C0))×100%. Td and Cd are the mean tumor volumes of the treated and control animals, and T0 and C0 are the mean tumor volumes of the treated and control animals at the start of the experiment.\nas §1"}, "[2]": {"system": "OPM-2 cells", "experiment": "Tumor growth study in OPM-2 mouse model", "format": "in vivo", "conditions": "OPM-2 subcutaneous model, 100 mg/kg oral gavage once a day, after 10 days", "experimental": "It is understood that compound activity in MM models is predictive of activity in amyloidosis (e.g. AL amyloidosis) models and/or patients.\nMice were inoculated with OPM-2 cells subcutaneously on the right flank with the single cell suspension of 95% viable tumor cells (1×10^7) in 200 μL RPMI-1640 Matrigel mixture (1:1 ratio) without serum for the tumor development. The treatment was started when the mean tumor size reached approximately 200 mm^3, with individual tumor size ranging from 180-220 mm^3. Animals were randomly distributed into treatment groups of 10 animals each and dosed with either vehicle (i.e. “Vehicle A”) or a compound of Formula (A) having the structure\n(“Compound (A)”) at 100 mg/kg administered by oral gavage once a day. Tumor volumes were evaluated twice per week to calculate tumor volume over time, and mice were weighed twice per week as a surrogate for signs of toxicity. Tumor growth inhibition (TGI) efficiency was calculated using the following equation TGI=(1−(Td−T0)/(Cd−C0))×100%. Td and Cd are the mean tumor volumes of the treated and control animals, and T0 and C0 are the mean tumor volumes of the treated and control animals at the start of the experiment."}},
  "data": [
    {"smiles": "C[C@@H]1C[C@H]2[C@@H]3CCC4=CC(=O)C=C[C@]4(C)[C@@]3(F)[C@@H](O)C[C@]2(C)[C@@]1(O)C(=O)CO", "note": "[dexamethasone, reference compound]", "values": [
      {"measurement": "tumor growth inhibition (TGI)", "setting": "[1]; single agent 1 mg/kg IP 5 days on 2 days off, day 14", "value": 22.5, "unit": "%"}
    ]},
    {"smiles": "CC1(C)CCC(CN2CCN(c3ccc(C(=O)NS(=O)(=O)c4ccc(NC[C@H]5CC[C@](C)(O)CC5)c([N+](=O)[O-])c4)c(Oc4cnc5[nH]ccc5c4)c3)CC2)=C(C23CC(C(F)F)(C2)C3)C1", "note": "[Compound (A)]", "values": [
      {"measurement": "TGI efficacy (tumor growth inhibition)", "setting": "[2]", "value": 46, "unit": "%"},
      {"measurement": "tumor growth inhibition (TGI)", "setting": "[1]; single agent 50 mg/kg p.o. qd x21, day 14", "value": 48.7, "unit": "%"},
      {"measurement": "TGI efficacy (tumor growth inhibition)", "setting": "[1]; KMS-12-BM subcutaneous model, single agent 100 mg/kg p.o. qd, day 14", "value": 62.8, "unit": "%"}
    ]},
    {"smiles": "CC(C)C[C@H](NC(=O)[C@H](Cc1ccccc1)NC(=O)c1cnccn1)B(O)O", "note": "[bortezomib, reference compound]", "values": [
      {"measurement": "tumor growth inhibition (TGI)", "setting": "[1]; single agent 0.5 mg/kg IP BIW, day 14", "value": 46.5, "unit": "%"}
    ]}
  ]
}
